# Source: ChEMBL document CHEMBL4483862, “Open-source discovery of chemical leads for next-generation chemoprotective antimalarials” (2018)
# pIC50: −log10 of the molar value.
# Tested on: Plasmodium berghei
# Assay: Luciferase/luciferin-expressing antifolate-resistant parasites were used to infect a culture of HepG2 cells that were pre-incubated with compounds. Infected hepatocytes emit light due to the luciferase reaction. Assay results are presented as the percent inhibition of light emission compared to control. […]
# Format: functional
# Conditions: sporozoite; for IC90: read-out: LUCIFERASE INFECTION ASSAY - IC90
SMILES,IC90,further results
CCCc1c(NC(=O)Nc2ccc(F)cc2)cnn1-c1ccccc1,6.91 µM,"pIC50 (HEPG2TOX_HILL_SLOPE 4.02, HEPG2TOX_R_SQUARED 0.285, PBLUC_HILL_SLOPE 3.66, PBLUC_R_SQUARED 0.261, read-out: LUCIFERASE INFECTION ASSAY - IC50): 5.42"
Cc1ccc(NC2=C(Cl)C(=O)c3ccccc3C2=O)cc1,7.81 µM,"pIC50 (HEPG2TOX_HILL_SLOPE 4.14, HEPG2TOX_R_SQUARED 0.984, PBLUC_HILL_SLOPE 5.35, PBLUC_R_SQUARED 0.565, read-out: LUCIFERASE INFECTION ASSAY - IC50): 5.29"
CCN1C/C(=C/c2ccc(OC)c(O)c2)C(=O)/C(=C/c2ccc(OC)c(O)c2)C1,4.05 µM,"pIC50 (HEPG2TOX_HILL_SLOPE 4, HEPG2TOX_R_SQUARED 0.984, PBLUC_HILL_SLOPE 15.6, PBLUC_R_SQUARED 0.475, read-out: LUCIFERASE INFECTION ASSAY - IC50): 5.45"
Cc1cc(C(C)(C)C)cc(C)c1C[n+]1c2n(c3ccc(C(F)(F)F)cc31)CCCCC2,2.85 µM,"pIC50 (HEPG2TOX_HILL_SLOPE 3.95, HEPG2TOX_R_SQUARED 0.938, PBLUC_HILL_SLOPE 4.2, PBLUC_R_SQUARED 0.767, read-out: LUCIFERASE INFECTION ASSAY - IC50): 5.77"
CC(C)c1ccc(NC(=O)Nc2nc(C(N)CCc3ccccc3)cs2)cc1 (stereo not given),7.09 µM,"pIC50 (HEPG2TOX_HILL_SLOPE 3.95, HEPG2TOX_R_SQUARED 0.94, PBLUC_HILL_SLOPE 4.47, PBLUC_R_SQUARED 0.626, read-out: LUCIFERASE INFECTION ASSAY - IC50): 5.36"
Cn1ccc2cc(-c3cnc4cnc(-c5cccc(C(=O)NCCO)c5)cn34)ccc21,3.63 µM,"pIC50 (HEPG2TOX_HILL_SLOPE 4.1, HEPG2TOX_R_SQUARED 0.752, PBLUC_HILL_SLOPE 9.77, PBLUC_R_SQUARED 0.277, read-out: LUCIFERASE INFECTION ASSAY - IC50): 5.54"
COc1ccc(NS(=O)(=O)c2cc([N+](=O)[O-])ccc2N/N=C(\C)c2ccc(S(=O)(=O)NCc3ccco3)cc2)cc1,4.99 µM,"pIC50 (HEPG2TOX_HILL_SLOPE 4.01, HEPG2TOX_R_SQUARED 0.968, PBLUC_HILL_SLOPE 8.16, PBLUC_R_SQUARED 0.206, read-out: LUCIFERASE INFECTION ASSAY - IC50): 5.42"
COc1cc(/C=C2/C(=O)Nc3cc(Cl)ccc32)c([N+](=O)[O-])cc1OC(F)F,4.58 µM,"pIC50 (HEPG2TOX_HILL_SLOPE 4.03, HEPG2TOX_R_SQUARED 0.974, PBLUC_HILL_SLOPE 1.79, PBLUC_R_SQUARED 0.765, read-out: LUCIFERASE INFECTION ASSAY - IC50): 5.87"
CN(C)c1ccccc1-c1cn2c(-c3ccc(CO)cc3)cnc2cn1,> 9.58 µM,"pIC50 (HEPG2TOX_HILL_SLOPE 4.17, HEPG2TOX_R_SQUARED 0.686, PBLUC_HILL_SLOPE 6.79, PBLUC_R_SQUARED 0.489, read-out: LUCIFERASE INFECTION ASSAY - IC50): 5.07"
COc1ccc(-c2cnc3sc(NCCc4ccncc4)nn23)cc1OC,8.35 µM,"pIC50 (HEPG2TOX_HILL_SLOPE 4.06, HEPG2TOX_R_SQUARED 0.383, PBLUC_HILL_SLOPE 12.9, PBLUC_R_SQUARED 0.15, read-out: LUCIFERASE INFECTION ASSAY - IC50): 5.15"
Cc1cc(C(=O)Cn2c(Cl)nc3c2c(=O)n(C)c(=O)n3C)c(C)n1-c1ccc2c(c1)OCCO2,> 10 µM,"pIC50 (HEPG2TOX_HILL_SLOPE 4.07, HEPG2TOX_R_SQUARED 0.354, PBLUC_HILL_SLOPE 24.1, PBLUC_R_SQUARED 0.351, read-out: LUCIFERASE INFECTION ASSAY - IC50): 5.01"
COc1cc(CN(C)C(=O)c2ccc3c(c2)S(=O)(=O)N=C2CCCCCN23)ccc1OC(F)F,> 10 µM,"pIC50 (HEPG2TOX_HILL_SLOPE 4.17, HEPG2TOX_R_SQUARED 0.672, PBLUC_HILL_SLOPE 0.764, PBLUC_R_SQUARED 0.62, read-out: LUCIFERASE INFECTION ASSAY - IC50): 5.71"
CCCCCNC(=O)COC(=O)c1ccccc1-n1ncc(Cl)c(Cl)c1=O,7.79 µM,"pIC50 (HEPG2TOX_HILL_SLOPE 4.14, HEPG2TOX_R_SQUARED 0.93, PBLUC_HILL_SLOPE 2.41, PBLUC_R_SQUARED 0.609, read-out: LUCIFERASE INFECTION ASSAY - IC50): 5.50"
NS(=O)(=O)c1ccc(S(=O)(=O)N2CCCN(Cc3ccc(C(F)(F)F)cc3)CC2)cc1,> 10 µM,"pIC50 (HEPG2TOX_HILL_SLOPE 4.06, HEPG2TOX_R_SQUARED 0.95, PBLUC_HILL_SLOPE 2.74, PBLUC_R_SQUARED 0.121, read-out: LUCIFERASE INFECTION ASSAY - IC50): 5.16"
Fc1cccc(-c2nc3ccnc(Nc4cccc(Oc5ccccc5)c4)c3[nH]2)c1,8.85 µM,"pIC50 (HEPG2TOX_HILL_SLOPE 4.02, HEPG2TOX_R_SQUARED 0.911, PBLUC_HILL_SLOPE 2.5, PBLUC_R_SQUARED 0.399, read-out: LUCIFERASE INFECTION ASSAY - IC50): 5.43"
COc1ccc(/C(C)=N/NC(=O)c2sc3ccccc3c2Cl)c(O)c1,3.29 µM,"pIC50 (HEPG2TOX_HILL_SLOPE 4.02, HEPG2TOX_R_SQUARED 0.607, PBLUC_HILL_SLOPE 31, PBLUC_R_SQUARED 0.396, read-out: LUCIFERASE INFECTION ASSAY - IC50): 5.51"
COc1ccc(S(=O)(=O)Nc2ccccc2C(=O)NNC(=O)c2ccccc2O)cc1,4.69 µM,"pIC50 (HEPG2TOX_HILL_SLOPE 4.15, HEPG2TOX_R_SQUARED 0.834, PBLUC_HILL_SLOPE 17, PBLUC_R_SQUARED 0.564, read-out: LUCIFERASE INFECTION ASSAY - IC50): 5.39"
CC(C)N1/C(=C/c2ccc3c(c2)OCCO3)C(=O)c2ccccc2S1(=O)=O,> 8.56 µM,"pIC50 (HEPG2TOX_HILL_SLOPE 4.1, HEPG2TOX_R_SQUARED 0.916, PBLUC_HILL_SLOPE 3.33, PBLUC_R_SQUARED 0.555, read-out: LUCIFERASE INFECTION ASSAY - IC50): 5.29"
C/C(=N\n1c(-c2cccc(Br)c2)cs/c1=N\c1ccc(Cl)cc1Cl)c1ccc2c(c1)OCO2,> 10 µM,"pIC50 (HEPG2TOX_HILL_SLOPE 4.14, HEPG2TOX_R_SQUARED 0.54, PBLUC_HILL_SLOPE 9.69, PBLUC_R_SQUARED 0.311, read-out: LUCIFERASE INFECTION ASSAY - IC50): 5.01"
Cc1c(Cl)cccc1/N=C1\SCCN1C(=O)C(c1ccccc1)c1ccccc1,> 10 µM,"pIC50 (HEPG2TOX_HILL_SLOPE 4.09, HEPG2TOX_R_SQUARED 0.235, read-out: LUCIFERASE INFECTION ASSAY - IC50): < 5.00"
CC(C)C(Nc1ccc(C(F)(F)F)cc1Cl)C(=O)Nc1nc(-c2ccccc2Cl)cs1 (stereo not given),6.73 µM,"pIC50 (HEPG2TOX_HILL_SLOPE 4.1, HEPG2TOX_R_SQUARED 0.707, PBLUC_HILL_SLOPE 4.35, PBLUC_R_SQUARED 0.154, read-out: LUCIFERASE INFECTION ASSAY - IC50): 5.39"
COc1ccc(Cn2c3c(c4ccccc4c2=O)C(=O)c2ccccc2-3)cc1,> 8.98 µM,"pIC50 (HEPG2TOX_HILL_SLOPE 4, HEPG2TOX_R_SQUARED 0.749, PBLUC_HILL_SLOPE 2.74, PBLUC_R_SQUARED 0.283, read-out: LUCIFERASE INFECTION ASSAY - IC50): 5.10"
Cc1ccc(-c2c(C)nn3c(=O)cc(C)[nH]c23)cc1,12.5 µM,"pIC50 (HEPG2TOX_HILL_SLOPE 4.15, HEPG2TOX_R_SQUARED 0.53, PBLUC_HILL_SLOPE 4.03, PBLUC_R_SQUARED 0.493, read-out: LUCIFERASE INFECTION ASSAY - IC50): 5.14"
CC(=O)Nc1cccc(-c2cn3c(-c4cccs4)cnc3cn2)c1,> 9.87 µM,"pIC50 (HEPG2TOX_HILL_SLOPE 3.98, HEPG2TOX_R_SQUARED 0.532, PBLUC_HILL_SLOPE 3.16, PBLUC_R_SQUARED 0.221, read-out: LUCIFERASE INFECTION ASSAY - IC50): 5.29"
O=C(Nc1ccc(SC(F)(F)F)cc1)Nc1ccc(Oc2cccc(C(F)(F)F)c2)nc1,0.806 µM,"pIC50 (HEPG2TOX_HILL_SLOPE 4.03, HEPG2TOX_R_SQUARED 0.946, PBLUC_HILL_SLOPE 9.59, PBLUC_R_SQUARED 0.631, read-out: LUCIFERASE INFECTION ASSAY - IC50): 6.19"
O=C(NC1CCN(c2ccc(S(=O)(=O)C(F)F)cc2)CC1)C1CC1,> 10 µM,"pIC50 (HEPG2TOX_HILL_SLOPE 4.17, HEPG2TOX_R_SQUARED 0.587, PBLUC_HILL_SLOPE 17, PBLUC_R_SQUARED 0.152, read-out: LUCIFERASE INFECTION ASSAY - IC50): 5.05"
COc1ccc(-c2cnc3ccc(NCc4cccc(Cl)c4)nn23)cc1,8.06 µM,"pIC50 (HEPG2TOX_HILL_SLOPE 4.15, HEPG2TOX_R_SQUARED 0.863, PBLUC_HILL_SLOPE 14.2, PBLUC_R_SQUARED 0.0441, read-out: LUCIFERASE INFECTION ASSAY - IC50): 5.16"
COc1cccc(CNCc2nc(NCc3cccc(OC)c3)c3c(C)c(C)sc3n2)c1,> 10 µM,"pIC50 (HEPG2TOX_HILL_SLOPE 3.99, HEPG2TOX_R_SQUARED 0.699, PBLUC_HILL_SLOPE 15.2, PBLUC_R_SQUARED 0.535, read-out: LUCIFERASE INFECTION ASSAY - IC50): 5.05"
CN(C)c1cccc(CNc2nccc3nc(-c4cccc(F)c4)[nH]c23)c1,5.76 µM,"pIC50 (HEPG2TOX_HILL_SLOPE 3.96, HEPG2TOX_R_SQUARED 0.788, PBLUC_HILL_SLOPE 4.1, PBLUC_R_SQUARED 0.415, read-out: LUCIFERASE INFECTION ASSAY - IC50): 5.47"
Cc1oc2c(c1C(=O)N1CCC(C)CC1)C(=O)c1ccccc1C2=O,> 10 µM,"pIC50 (HEPG2TOX_HILL_SLOPE 3.97, HEPG2TOX_R_SQUARED 0.955, PBLUC_HILL_SLOPE 1.55, PBLUC_R_SQUARED 0.65, read-out: LUCIFERASE INFECTION ASSAY - IC50): 5.56"
